# Assay results taken from US20240150293A1, “SPIROCYCLOHEXANE DERIVATIVES, PHARMACEUTICAL COMPOSITIONS CONTAINING THEM AND THEIR USES AS ANTI-APOPTOTIC INHIBITORS” (LES LABORATOIRES SERVIER, priority 2021, published 2024).
# Target: Mcl-1 protein (UniProtKB Q07820) (Homo sapiens (Human), UniProt Q07820)
# Assay: Inhibition of Mcl-1 by the fluorescence polarisation assay (Example A, Method A)
# Format: binding
# Details: fluorescence polarization assay
# Procedure, shortened: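 Protein (5 nM) and fluorescein-tagged peptide tracer (1 nM) incubated with 11-point compound series for 2 h at room temperature in HEPES/NaCl/Tween 20 buffer, pH 7.4, 5% DMSO. Displacement read as decrease in polarisation; IC50 fitted by 4-parameter logistic, converted to Ki (cKi or eKi).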
# Mcl-1 protein, sequence (Q07820 whole entry): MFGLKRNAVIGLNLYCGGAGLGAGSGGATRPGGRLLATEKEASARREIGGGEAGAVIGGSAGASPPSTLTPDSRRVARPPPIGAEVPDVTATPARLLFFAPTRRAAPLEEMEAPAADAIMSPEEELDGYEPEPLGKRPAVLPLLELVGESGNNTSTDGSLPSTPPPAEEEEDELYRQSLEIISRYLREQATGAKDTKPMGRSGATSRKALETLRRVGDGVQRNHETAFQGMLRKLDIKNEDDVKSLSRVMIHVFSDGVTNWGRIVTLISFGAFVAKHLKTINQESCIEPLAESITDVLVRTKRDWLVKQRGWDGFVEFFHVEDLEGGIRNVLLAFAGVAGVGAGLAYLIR
row,Structure (SMILES),Ki [nM]
1,"Cc1ccc(C2Cc3ccccc3C23CCC(Nc2cccc(Br)c2)(C(=O)O)CC3)s1 (single isomer, unassigned) [Example 262, 4-(3-bromoanilino)-2′-(5-methylthiophen-2-yl)-2′,3′-dihydrospiro[cyclohexane-1,1′-indene]-4-carboxylic acid]",236
2,"O=C(O)[C@]1(Nc2cccc(Cl)c2)CC[C@@]2(CC1)c1ccccc1[C@@H]1C[C@@H]12 (single isomer, unassigned) [Example 107, (1r,1′aR*,4r,6′aS*)-4-(3-chloroanilino)-1′a,6′a-dihydro-1′H-spiro[cyclohexane-1,6′-cyclopropa[a]indene]-4-carboxylic acid]",1870
3,"CC1=Cc2ccccc2[C@]12CC[C@@](Nc1cccc(Br)c1)(C(=O)O)CC2 [Example 142, (1r,4r)-4-(3-bromoanilino)-2′-methylspiro[cyclohexane-1,1′-indene]-4-carboxylic acid]",261
4,"O=C(O)C1(Nc2cccc(Br)c2)CCC2(CC1)c1ccccc1CC2c1cccc(Cl)c1 (stereo not shown) [Example 221, 4-(3-bromoanilino)-2′-(3-chlorophenyl)-2′,3′-dihydrospiro[cyclohexane-1,1′-indene]-4-carboxylic acid]",995
5,"CN1c2ccc(C3CC3)cc2[C@]2(CC[C@](Nc3cccc(Br)c3)(C(=O)O)CC2)C1=O [Example 15, (1r,4r)-4-(3-bromoanilino)-5′-cyclopropyl-1′-methyl-2′-oxo-1′,2′-dihydrospiro[cyclohexane-1,3′-indole]-4-carboxylic acid]",11500
6,"Cc1ccc(C2Cc3ccccc3C23CCC(Nc2cccc(Br)c2)(C(=O)O)CC3)cc1 (stereo not shown) [Example 216, 4-(3-bromoanilino)-2′-(4-methylphenyl)-2′,3′-dihydrospiro[cyclohexane-1,1′-indene]-4-carboxylic acid]",1740
7,"O=C(O)[C@]1(Nc2cccc(Br)c2)CC[C@]2(CC1)c1ccccc1CC2c1ccccc1 (single isomer, unassigned) [Example 210, (1s,4s)-4-(3-bromoanilino)-2′-phenyl-2′,3′-dihydrospiro[cyclohexane-1,1′-indene]-4-carboxylic acid]",89000
8,"Cc1cccc(C2Cc3ccccc3C23CCC(Nc2cccc(Br)c2)(C(=O)O)CC3)c1 (stereo not shown) [Example 215, 4-(3-bromoanilino)-2′-(3-methylphenyl)-2′,3′-dihydrospiro[cyclohexane-1,1′-indene]-4-carboxylic acid]",846
9,"O=C(O)[C@]1(Nc2cccc(Cl)c2)CC[C@]2(CC1)C(c1cc3ccccc3o1)=Cc1ccccc12 [Example 303, (1s,4s)-2′-(1-benzofuran-2-yl)-4-(3-chloroanilino)spiro[cyclohexane-1,1′-indene]-4-carboxylic acid]",2260
10,"COc1cccc(C2=Cc3ccccc3[C@]23CC[C@@](Nc2cccc(Cl)c2)(C(=O)O)CC3)c1Cl [Example 267, (1s,4s)-4-(3-chloroanilino)-2′-(2-chloro-3-methoxyphenyl)spiro[cyclohexane-1,1′-indene]-4-carboxylic acid]",259
11,"COc1ccc2c(c1)[C@]1(CC2)CC[C@@](Nc2cccc(Br)c2)(C(=O)O)CC1 [Example 62, (1s,4r)-4-(3-bromoanilino)-6′-methoxy-2′,3′-dihydrospiro[cyclohexane-1,1′-indene]-4-carboxylic acid]",43500
12,"Cc1cnccc1OCCCN1Cc2ccccc2[C@]12CC[C@@](Nc1cccc(Cl)c1)(C(=O)O)CC2 [Example 37, (1s,4s)-4-(3-chloroanilino)-2′-{3-[(3-methylpyridin-4-yl)oxy]propyl}-2′,3′-dihydrospiro[cyclohexane-1,1′-isoindole]-4-carboxylic acid]",295
13,"O=C(O)[C@]1(Nc2cccc(Cl)c2)CC[C@]2(CC1)C(c1cccc(Oc3ccccc3)c1)=Cc1ccccc12 [Example 300, (1s,4s)-4-(3-chloroanilino)-2′-(3-phenoxyphenyl)spiro[cyclohexane-1,1′-indene]-4-carboxylic acid]",174
14,"Cc1ccc2c(c1)[C@]1(CC[C@](Nc3cccc(Br)c3)(C(=O)O)CC1)C(=O)N2C [Example 7, (1r,4r)-4-(3-bromoanilino)-1′,5′-dimethyl-2′-oxo-1′,2′-dihydrospiro[cyclohexane-1,3′-indole]-4-carboxylic acid]",23800
15,"CC1N(C)c2ccccc2[C@]12CC[C@](Nc1cccc(Br)c1)(C(=O)O)CC2 (stereo partly shown) [Example 23, (1r,4r)-4-(3-bromoanilino)-1′,2′-dimethyl-1′,2′-dihydrospiro[cyclohexane-1,3′-indole]-4-carboxylic acid]",1080
16,"O=C(O)[C@]1(Nc2cccc(Br)c2)CC[C@]2(CC1)c1ccccc1CC2CCc1ccccn1 (mixture of isomers) [Example 176, (1s,4s)-4-(3-bromoanilino)-2′-[2-(pyridin-2-yl)ethyl]-2′,3′-dihydrospiro[cyclohexane-1,1′-indene]-4-carboxylic acid]",11800
17,"Cc1ccc(C2=Cc3ccccc3C23CCC(Nc2cccc(Br)c2)(C(=O)O)CC3)cc1Cl (single isomer, unassigned) [Example 234, 4-(3-bromoanilino)-2′-(3-chloro-4-methylphenyl)spiro[cyclohexane-1,1′-indene]-4-carboxylic acid]",115000
18,"O=C(O)[C@]1(Nc2cccc(Cl)c2)CC[C@@]2(CC1)c1ccccc1CC2CCOc1ccnc(F)c1 (stereo partly shown) [Example 187, (1r,4r)-4-(3-chloroanilino)-2′-{2-[(2-fluoropyridin-4-yl)oxy]ethyl}-2′,3′-dihydrospiro[cyclohexane-1,1′-indene]-4-carboxylic acid]",271
19,"O=C(O)C1(Nc2cccc(Br)c2)CCC2(CC1)c1ccccc1CC2c1ccc(Cl)cc1 (stereo not shown) [Example 222, 4-(3-bromoanilino)-2′-(4-chlorophenyl)-2′,3′-dihydrospiro[cyclohexane-1,1′-indene]-4-carboxylic acid]",2260

# Further lines, results first:
row,Ki [nM],Structure (SMILES)
1,18800,"O=C(NCCc1ccncc1)C1=Cc2ccccc2[C@]12CC[C@@](Nc1cccc(Cl)c1)(C(=O)O)CC2 [Example 402, (1s,4s)-4-(3-chloroanilino)-2′-{[2-(pyridin-4-yl)ethyl]carbamoyl}spiro[cyclohexane-1,1′-indene]-4-carboxylic acid]"
2,9960,"O=C(O)[C@]1(Nc2cccc(Cl)c2)CC[C@@]2(CC1)c1ccccc1CC2c1cccc(OCC2CC2)c1 (single isomer, unassigned) [Example 355, (1r,4r)-4-(3-chloroanilino)-2′-[3-(cyclopropylmethoxy)phenyl]-2′,3′-dihydrospiro[cyclohexane-1,1′-indene]-4-carboxylic acid]"
3,522,"O=C(O)[C@]1(Nc2cccc(Cl)c2)CC[C@]2(CC1)C(COCCc1cccc(Cl)c1)=Cc1ccccc12 [Example 417, (1s,4s)-4-(3-chloroanilino)-2′-{[2-(3-chlorophenyl)ethoxy]methyl}spiro[cyclohexane-1,1′-indene]-4-carboxylic acid]"
4,32.8,"CC1CCc2nccc(OC[C@H](C)CC3Cc4ccccc4[C@]34CC[C@@](Nc3cccc(Cl)c3)(C(=O)O)CC4)c21 (single isomer, unassigned) [Example 601]"
5,101,"O=C(O)[C@]1(Nc2cccc(Cl)c2)CC[C@]2(CC1)C(CCOCc1ccccc1)=Cc1ccccc12 [Example 395, (1r,4r)-2′-[2-(benzyloxy)ethyl]-4-(3-chloroanilino)spiro[cyclohexane-1,1′-indene]-4-carboxylic acid]"
6,3100,"COc1ccc2c(c1)[C@]1(CC[C@@](Nc3cccc(Cl)c3)(C(=O)O)CC1)C(c1cccc(Oc3ccccc3)c1)C2 (single isomer, unassigned) [Example 379, (1r,4r)-4-(3-chloroanilino)-6′-methoxy-2′-(3-phenoxyphenyl)-2′,3′-dihydrospiro[cyclohexane-1,1′-indene]-4-carboxylic acid]"
7,677,"O=C(O)[C@]1(Nc2cccc(Cl)c2)CC[C@@]2(CC1)c1ccccc1CC2c1ccccc1 (single isomer, unassigned) [Example 328, (1r,4r)-4-(3-chloroanilino)-2′-phenyl-2′,3′-dihydrospiro[cyclohexane-1,1′-indene]-4-carboxylic acid]"
8,793,"COc1ccc(CCOCC2=Cc3ccccc3[C@]23CC[C@@](Nc2cccc(Cl)c2)(C(=O)O)CC3)cc1 [Example 421, (1s,4s)-4-(3-chloroanilino)-2′-{[2-(4-methoxyphenyl)ethoxy]methyl}spiro[cyclohexane-1,1′-indene]-4-carboxylic acid]"
9,1750,"O=C(O)[C@]1(Nc2cccc(Cl)c2)CC[C@@]2(CC1)c1ccccc1CC2CCCOc1n[nH]c2c1CCCC2 (stereo partly shown) [Example 433, (1r,4r)-4-(3-chloroanilino)-2′-{3-[(4,5,6,7-tetrahydro-1H-indazol-3-yl)oxy]propyl}-2′,3′-dihydrospiro[cyclohexane-1,1′-indene]-4-carboxylic acid]"
10,1100,"O=C(O)[C@]1(Nc2cccc(Cl)c2)CC[C@]2(CC1)C(COCCc1ccc(Cl)cc1)=Cc1ccccc12 [Example 420, (1s,4s)-4-(3-chloroanilino)-2′-{[2-(4-chlorophenyl)ethoxy]methyl}spiro[cyclohexane-1,1′-indene]-4-carboxylic acid]"
11,267,"O=C(O)[C@]1(Nc2cccc(Cl)c2)CC[C@@]2(CC1)c1ccccc1CC2c1cccc(Oc2ccncc2)c1 (single isomer, unassigned) [Example 376, (1r,4r)-4-(3-chloroanilino)-2′-{3-[(pyridin-4-yl)oxy]phenyl}-2′,3′-dihydrospiro[cyclohexane-1,1′-indene]-4-carboxylic acid]"
12,459,"O=C(O)[C@]1(Nc2cccc(Cl)c2)CC[C@@]2(CC1)c1ccccc1CC2c1ccc(Oc2ccncc2)cc1 (single isomer, unassigned) [Example 364, (1r,4r)-4-(3-chloroanilino)-2′-{4-[(pyridin-4-yl)oxy]phenyl}-2′,3′-dihydrospiro[cyclohexane-1,1′-indene]-4-carboxylic acid]"
